Experimental data taken from ChEMBL document CHEMBL5512599, “Synthetic non-toxic anti-biofilm agents as a strategy in combating bacterial resistance” (Eur J Med Chem, 2023).
Converted amounts (≈) assume the structure as drawn. Each block holds one compound with its values, some of them ahead of it.

Assays:
Enterococcus faecalis [1] = assay: Antibiofilm activity against Enterococcus faecalis ATCC 29212 assessed as biofilm eradication incubated for 20 mins by crystal violet staining based analysis; type: functional
Enterococcus faecalis [2] = assay: Antibacterial activity against Enterococcus faecalis ATCC 29212 assessed as bacterial growth inhibition incubated for 15 to 18 hrs by Muller hinton broth based dilution assay; type: functional; details: time 15-18 hrs
Pseudomonas aeruginosa [3] = assay: Antibiofilm activity against Pseudomonas aeruginosa PAO1 assessed as inhibition of biofilm formation incubated at 15 uM relative to control; type: functional; parameters: scale not given: the % may be the effect or the level left
Pseudomonas aeruginosa [4] = assay: Antibiofilm activity against Pseudomonas aeruginosa PAO1 assessed as inhibition of biofilm formation at 100 uM relative to control; type: functional; parameters: scale not given: the % may be the effect or the level left
[5] = Inhibition of quorum sensing system in Pseudomonas aeruginosa PAO1 assessed as inhibition of pyocyanin production at 256 ug/ml incubated for 24 hrs by absorbance based assay
[6] = biological target: T1, Transcriptional regulator MvfR (Pseudomonas aeruginosa PA14, UniProt A0A072ZLE6); assay: Inhibition of PqsR-mediated quorum sensing system in Pseudomonas aeruginosa PAO1 assessed as reduction in pyocyanin production
T1 sequence (A0A072ZLE6 whole entry): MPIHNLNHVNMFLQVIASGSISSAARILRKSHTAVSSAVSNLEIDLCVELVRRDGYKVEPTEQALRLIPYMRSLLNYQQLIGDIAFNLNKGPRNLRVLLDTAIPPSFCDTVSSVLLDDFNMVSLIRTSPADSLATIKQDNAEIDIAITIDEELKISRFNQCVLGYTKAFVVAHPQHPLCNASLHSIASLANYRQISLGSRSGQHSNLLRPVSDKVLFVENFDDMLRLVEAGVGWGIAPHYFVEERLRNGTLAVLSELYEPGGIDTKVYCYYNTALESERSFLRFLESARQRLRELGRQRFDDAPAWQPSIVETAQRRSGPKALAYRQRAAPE

[7] = Inhibition of Quorum sensing system Las in Pseudomonas aeruginosa PAO1 assessed as reduction in interaction with LasR regulator
Staphylococcus aureus [8] = assay: Antimicrobial activity against Staphylococcus aureus ATCC 25923 assessed as reduction in bacterial growth at 0.12 uM incubated for 16 hrs by broth dilution method relative to control; type: functional; parameters: scale not given: the % may be the effect or the level left
Staphylococcus aureus [9] = assay: Antimicrobial activity against Staphylococcus aureus ATCC 25923 assessed as reduction in bacterial growth at 0.5 uM incubated for 16 hrs by broth dilution method relative to control; type: functional; parameters: scale not given: the % may be the effect or the level left
Staphylococcus aureus [10] = assay: Antimicrobial activity against Staphylococcus aureus ATCC 25923 assessed as reduction in bacterial growth at 0.25 uM incubated for 16 hrs by broth dilution method relative to control; type: functional; parameters: scale not given: the % may be the effect or the level left
Pseudomonas aeruginosa [11] = assay: Antibiofilm activity against Pseudomonas aeruginosa PA14 assessed as inhibition of biofilm formation incubated for 24 hrs by microscopic analysis; type: functional, organism-based; details: PA14, 24 h
Staphylococcus aureus [12] = assay: Antibiofilm activity against Staphylococcus aureus ATCC 33862 assessed as reduction in biofilm formation at 20 uM incubated for 24 hrs by absorbance based assay relative to control; type: functional; parameters: scale not given: the % may be the effect or the level left
Pseudomonas aeruginosa [13] = assay: Antibiofilm activity against Pseudomonas aeruginosa ATCC 10145 assessed as reduction in biofilm formation at 20 uM incubated for 24 hrs by absorbance based assay relative to control; type: functional; parameters: scale not given: the % may be the effect or the level left
Pseudomonas aeruginosa [14] = assay: Antibiofilm activity against Pseudomonas aeruginosa PAO1 assessed as inhibition of biofilm formation at 64 microg/ml incubated for 24 hrs by BacTiter Glo reagent based luminescence analysis relative to control; type: functional; parameters: scale not given: the % may be the effect or the level left; details: dose 64 µg/ml
Pseudomonas aeruginosa [15] = assay: Antibacterial activity against Pseudomonas aeruginosa 27853 assessed as inhibition of bacterial growth at 32 microg/ml incubated for 24 hrs in presence of Ciprofloxacin by absorbance based microplate reader analysis relative to control; type: functional; parameters: scale not given: the % may be the effect or the level left; details: dose 32 µg/ml
Pseudomonas aeruginosa [16] = assay: Antibacterial activity against Pseudomonas aeruginosa 27853 assessed as inhibition of bacterial growth at 32 microg/ml incubated for 24 hrs in presence of Clarithromycin by absorbance based microplate reader analysis relative to control; type: functional; parameters: scale not given: the % may be the effect or the level left; details: dose 32 µg/ml
[17] = Inhibition of quorum sensing system in Pseudomonas aeruginosa PA14 assessed as inhibition of pyocyanin production
Pseudomonas aeruginosa [18] = assay: Antibiofilm activity against Pseudomonas aeruginosa ATCC 27853 assessed as inhibition of biofilm formation at 0.5 times of MIC by crystal violet staining based analysis relative to control; type: functional; parameters: scale not given: the % may be the effect or the level left
Klebsiella pneumoniae = assay: Antibiofilm activity against Klebsiella pneumoniae ATCC 13882 assessed as inhibition of biofilm formation incubated for 24 hrs by crystal violet staining based broth microdilution method; type: functional, organism-based; details: ATCC 13882, 24 h
Staphylococcus aureus [19] = assay: Antibiofilm activity against Methicillin-resistant Staphylococcus aureus ATCC BAA-4A assessed as inhibition of biofilm formation; type: functional, organism-based
Staphylococcus aureus [20] = assay: Antibiofilm activity against Staphylococcus aureus ATCC 25923 at 25 ug/ml measured after 24 hrs by crystal violet staining based analysis relative to control; type: functional; details: dose 25 µg/ml
[21] = system: Staphylococcus epidermidis; assay: Antibacterial activity against Staphylococcus epidermidis RP62A assessed as reduction in bacterial growth incubated for 18 to 20 hrs by broth microdilution assay; type: functional; details: time 18-20 hrs
Staphylococcus aureus [22] = assay: Antibacterial activity against Staphylococcus aureus ATCC 6538 assessed as reduction in bacterial growth incubated for 18 to 24 hrs by broth microdilution method; type: functional; details: time 18-24 hrs
Staphylococcus aureus [23] = assay: Antibacterial activity against Staphylococcus aureus ATCC 25923 assessed as reduction in bacterial growth incubated for 18 to 24 hrs by broth microdilution method; type: functional; details: time 18-24 hrs
Staphylococcus aureus [24] = assay: Antibacterial activity against Staphylococcus aureus ATCC 29213 assessed as reduction in bacterial growth incubated for 18 to 24 hrs by broth microdilution method; type: functional; details: time 18-24 hrs
[25] = Inhibition of Staphylococcus aureus sortase A by FRET assay
Pseudomonas aeruginosa [26] = assay: Antibiofilm activity against Pseudomonas aeruginosa PAO1 assessed as inhibition of biofilm formation incubated at 100 uM incubated for 24 hrs by crystal violet staining based analysis relative to control; type: functional; parameters: scale not given: the % may be the effect or the level left
Staphylococcus aureus [27] = assay: Antibiofilm activity against methicillin-resistant Staphylococcus aureus assessed as inhibition of biofilm formation incubated for overnight by crystal violet staining based microtiter plate assay; type: functional, organism-based
Pseudomonas aeruginosa [28] = assay: Anti-motility activity against Pseudomonas aeruginosa PAO1 assessed as reduction in swarming at 20 uM incubated for 16 hrs by crystal violet staining analysis relative to control; type: functional; parameters: scale not given: the % may be the effect or the level left
[29] = system: Staphylococcus epidermidis; assay: Antibiofilm activity against Staphylococcus epidermidis assessed as inhibition of biofilm formation at 40 uM measured after 24 hrs by confocal laser scanning microscopy analysis relative to control; type: functional; parameters: scale not given: the % may be the effect or the level left
Pseudomonas aeruginosa [30] = assay: Antibiofilm activity against Pseudomonas aeruginosa PAO1 assessed as reduction in biofilm formation at 100 uM incubated for 24 hrs by crystal violet staining based analysis relative to control; type: functional; parameters: scale not given: the % may be the effect or the level left

SMILES: Cc1cccc(NC(=O)CC(=O)CSC(=S)N[C@@H]2CCOC2=O)c1
Activity (Pseudomonas aeruginosa [3]): 35%

SMILES: Clc1ccc2c(NCCCCCCCCNCc3cc4ccccc4s3)ccnc2c1
IC50 [6]: 30 µM

SMILES: Cc1ccc(C(=O)c2nn(-c3nc(-c4ccccc4)c(-c4sc(-n5nc(C(=O)c6ccc(C(F)(F)F)cc6)c(C#N)c5N)nc4-c4ccccc4)s3)c(N)c2C#N)cc1
Activity (Staphylococcus aureus [8]): 15%
Activity (Staphylococcus aureus [9]): 35%
Activity (Staphylococcus aureus [10]): 20%

SMILES: O=C(CSC(=S)N[C@@H]1CCOC1=O)CC(=O)Nc1cccc2ccccc12
Activity (Pseudomonas aeruginosa [3]): 35%

SMILES: CCCCCCCCCCCCCC(=O)Nc1c(N)[nH]c2ccccc2c1=O
Activity (Staphylococcus aureus [12]): >=50%
Activity (Pseudomonas aeruginosa [13]): >=50%

SMILES: Clc1ccc2c(NCCCCCCCCNCc3cc4ccccc4o3)ccnc2c1
IC50 [6]: 25 µM

SMILES: COc1ccc(OCCCCCCCC(=O)NNC(=O)Cn2c(=O)oc3ncccc32)cc1
Activity (Pseudomonas aeruginosa [14]): 40%
Activity (Pseudomonas aeruginosa [15]): 48.27%
inhibition ([5]; dose 256.0 µg/ml): 53%
Activity (Pseudomonas aeruginosa [16]): 49.79%

SMILES: CCCCCc1ccc(C(=O)NCCn2cc(CCCCCc3[nH]cnc3-c3ccoc3)nn2)cc1
IC50 (Staphylococcus aureus [19]): 3.7 µM

SMILES: Cc1nn(C)c(NC(=O)c2ccc([N+](=O)[O-])cc2)c1[N+]#N
Activity (Staphylococcus aureus [20]): 96%

SMILES: O=C(CCCNc1ccc(Cl)cc1)NC1CCOC1=O (centres undefined)
Activity (Pseudomonas aeruginosa [26]): 70%

SMILES: CCCCOc1ccc(/C=C(\C)Cn2cc(CCCCCc3c[nH]c(N)n3)nn2)cc1
IC50 (Staphylococcus aureus [27]): < 10 µM

SMILES: CCCCCc1ccc(C(=O)NCCn2cc(CCCCCc3c[nH]c(N)n3)nn2)cc1
IC50 (Staphylococcus aureus [27]): < 7.2 µM

SMILES: CN(C)c1cccc(/C=N/N=C2\SCC(=O)N2c2ccc(S(N)(=O)=O)cc2)c1
Activity (Pseudomonas aeruginosa [28]): 70%
Activity [29]: 70%

More lines, main results first:

MIC (Enterococcus faecalis [2]): 0.125 µg/mL (≈ 0.315 µM)
SMILES: c1ccc(-c2csc(-c3ccc(-c4cnc(-c5ccccc5)s4)cc3)n2)cc1
MBEC (Enterococcus faecalis [1]): 0.002 µg/mL

IC50 [5]: 17 µM
SMILES: N#Cc1ccnc(C(F)F)c1
Activity (Pseudomonas aeruginosa [4]): 73%

IC50 [7]: 80 µM
SMILES: CCCCCCCCCC(=O)NC1CCCC1 [N-CYCLOPENTYLDECANAMIDE]

IC50 (Pseudomonas aeruginosa [11]): 43 µM
SMILES: CCCCCCCNC(=O)CCc1c[nH]c(N)n1

IC50 (Pseudomonas aeruginosa [11]): 60 µM
SMILES: CCCCCCN(CCCCCC)C(=O)CCCc1c[nH]c(N)n1

IC50 [17]: 12 µM
SMILES: NCCCCCCCCCCCCNc1ccnc2cc(Cl)ccc12
Activity (Pseudomonas aeruginosa [18]): 85%

IC50 (Klebsiella pneumoniae): 26.4 µM
SMILES: Nc1nccc(-c2cccc(NC(=O)c3cc(Cl)cc(Cl)c3)c2)n1

IC50 (Pseudomonas aeruginosa [11]): 19 µM
SMILES: CCCCCCCCCCCc1c[nH]c(N)n1

IC50 [5]: 35 µM
SMILES: O=C(c1ccc(Cl)cc1)c1ccnc(C(F)F)c1
Activity (Pseudomonas aeruginosa [4]): 71%

MIC [21]: > 270 µM
MIC (Staphylococcus aureus [22]): > 270 µM
MIC (Staphylococcus aureus [23]): > 270 µM
MIC (Staphylococcus aureus [24]): > 270 µM
IC50 [25]: 50 µM
SMILES: CC(=O)/C(=N\Nc1ccc(Cl)c(Cl)c1)C(=O)O

MIC (Enterococcus faecalis [2]): 0.032 µg/mL (≈ 0.0742 µM)
SMILES: Clc1ccc(-c2csc(-c3ccc(-c4cnc(-c5ccccc5)s4)cc3)n2)cc1
MBEC (Enterococcus faecalis [1]): 0.016 µg/mL

IC50 [5]: 27 µM
SMILES: COC(=O)c1ccnc(C(F)F)c1
Activity (Pseudomonas aeruginosa [4]): 85%

IC50 [17]: 8 µM
SMILES: O=C(CCCOc1cccc(Br)c1)NC1CCSC1=O (centres undefined)
Activity (Pseudomonas aeruginosa [30]): 62%
